The record followed here is patent US7109206B2.

For series [1], the system named is patients with severe coronary artery disease. As to the kind of experiment: Angina symptoms and clinical outcome of treated patients (case reports). Format: in vivo, human. As to conditions: for angina frequency: buspirone 20 mg t.i.d.; for time to clearing of congestive heart failure: furosemide 40 mg twice a day, digoxin 0.25 mg, warfarin 5 mg once a day.
Text: The patient population in this study consisted of 11 individuals with severe coronary artery disease who were refractory to CABG or PCTA or who declined recommended CABG or PCTA, and one individual with severe carotid artery stenosis. The study group consisted of 10 men and 2 women, with a median age at entry into the program of 65 years (mean, 65.8 years), and a mean time in program of 4.1 years (range, 9 months to 12 years).
In this study, ten patients experienced angina at the time of presentation. The median time to remission of anginal symptoms was calculated on the basis of the nine patients who presented with angina and for whom records of anginal frequency were accessible.
Series [2] in a line: Serum lipids and laboratory values of treated patients (case reports).
Series [3] concerns patients with severe coronary artery disease. As to the kind of experiment: Tolerability / adverse effects in treated patients.

For the molecule `O=[N+]([O-])OCC(CO[N+](=O)[O-])O[N+](=O)[O-]` [nitroglycerin], in series [1] (Patient five, discontinuation of the nitroglycerin), the angina after discontinuation entry is “five episodes of angina”. Further, the nonexertional angina result in series [1] (Patient five, transdermal nitroglycerin) is recorded as “refractory”. Also, the left neck pain entry in series [1] (Patient two, 15 months after induction of therapy) is reported as “relieved”.

As for `CCC(C)(C)C(=O)O[C@H]1C[C@@H](C)C=C2C=C[C@H](C)[C@H](CC[C@@H]3C[C@@H](O)CC(=O)O3)[C@H]21` [simvastatin], in series [2] (Patient four, simvastatin 40 mg per day substituted for pravastatin in the regimen, range 81-146), the “serum total cholesterol, mean of five determinations” value was 118 mg/dL. Also, the “HDL cholesterol, mean of five determinations” value in series [2] (Patient four, simvastatin 40 mg per day, range 37-71) turned out to be 55 mg/dL. In series [2] (Patient four, year of 1995), this molecule yielded an HDL of 82 mg/dL, an LDL of 53 mg/dL, a total cholesterol of 121 mg/dL and a triglycerides of 44 mg/dL.

As for `NCCCC[C@H](N[C@@H](CCc1ccccc1)C(=O)O)C(=O)N1CCC[C@H]1C(=O)O` [lisinopril], the angina entry in series [1] (Patient three, lisinopril 5 mg/day substituted for diltiazem 60 mg four times a day) is reported as “Angina recurred with mild to moderate exercise”.

For the molecule `O=C1CC2(CCCC2)CC(=O)N1CCCCN1CCN(c2ncccn2)CC1` [buspirone], the angina entry in series [1] (Patient five, buspirone 15 mg t.i.d. added, induction phase) was “their angina remitted”. Also, the angina frequency entry was “one episode of mild angina in two weeks” in series [1] (Patient five, no use of nitroglycerin) and “no episodes of angina” in series [1] (Patient five, through June of the next year). Besides, the angina symptoms entry in series [1] (Patient five, buspirone increased to 20 mg t.i.d., isosorbide dinitrate discontinued) is “Marked palliation of the symptoms”. The “chest tightness with anxiety or distress” value in series [1] (Patient one, buspirone 10 mg b.i.d. added to medications) was “no further episodes of chest tightness were reported”. Further, the “frequency of angina symptoms” value in series [1] (Patient, buspirone 30 mg per day, after one month 15 mg t.i.d.) is on record as “remained approximately constant”. For the same molecule, the “severity of angina symptoms” value in series [1] (Patient, buspirone 30 mg per day, after one month 15 mg t.i.d., added to medications) is listed as “declined markedly, from pain to mild tightness”. Also, in series [1] (Patient, buspirone, six months after initiation of therapy), the anginal symptoms result is “resolved completely”. Also, the “relief from refractory unstable angina” value in series [1] (summary of results) was “effective in providing relief from refractory unstable angina”.

Turning to `CC[C@H](C)C(=O)O[C@H]1C[C@@H](C)C=C2C=C[C@H](C)[C@H](CC[C@@H]3C[C@@H](O)CC(=O)O3)[C@H]21` [lovastatin], the adverse event entry in series [3] (Patient four, on lovastatin 30 mg per day regimen, pravastatin substituted) is given as “mild conjunctivitis of unknown etiology”. The molecule also returned a total cholesterol in series [2] (Patient two, fifth year, lovastatin discontinued, range 155 to 194) of 176 mg/dL.

Consider `O=C(O)c1cccnc1` [niacin], for which the adverse effect entry in series [3] (Patient three, niacin 3.0 g/day, weeks 5-7, dose decreased to 1.5 g/day) is “itching and flushing”. The tolerability entry in series [3] (Patient two, niacin 3 g per day, dose decreased to 1 g per day) is “intolerance appeared”.

With `COc1ccc([C@@H]2Sc3ccccc3N(CCN(C)C)C(=O)[C@@H]2OC(C)=O)cc1` [diltiazem], in series [1] (Patient three, diltiazem restarted after one month of lisinopril), the angina result is “prompt remission of angina”.

`O=c1n(CCCN2CCN(c3cccc(Cl)c3)CC2)nc2ccccn12` [trazodone]: the “relief of fatigue and difficulty sleeping” value in series [1] (Patient three, trazodone 50 mg and imipramine 25 mg at bedtime, given together) was “fair to moderate relief”.

On to colestipol, for which the “serum total cholesterol, mean of three determinations” value in series [2] (Patient five, colestipol 12 g per day, declined from 241) worked out at 217 mg/dL. Moreover, in series [1] (Patient five, colestipol 12 g per day), the angina result is “severity of their angina declined”.

Take `C[C@H]1O[C@@H](O[C@H]2[C@@H](O)C[C@H](O[C@H]3[C@@H](O)C[C@H](O[C@H]4CC[C@@]5(C)[C@H](CC[C@@H]6[C@@H]5C[C@@H](O)[C@]5(C)[C@@H](C7=CC(=O)OC7)CC[C@]65O)C4)O[C@@H]3C)O[C@@H]2C)C[C@H](O)[C@@H]1O` [digoxin]: the “time to clearing of congestive heart failure” value in series [1] (Patient three, given together) worked out at 24 h.

Regarding `CC(=O)CC(c1ccccc1)c1c(O)c2ccccc2oc1=O` (centres unmarked) [warfarin], the “time to clearing of congestive heart failure” value in series [1] (Patient three, given together) turned out to be 24 h.
